Data taken from patent US9469650B2, “Melampomagnolide B derivatives” (BOARD OF TRUSTEES OF THE UNIVERSITY OF ARKANSAS, priority 2013, dated 2016).

Legend:
[1] = tested on: A549/ATCC; assay: panel of 60 human tumor cell lines, growth inhibition (Non-Small Cell Lung Cancer); details: Homo sapiens; for GI50: A549; for CC50: A549, read-out: LC50; for IC (TGI): A549, read-out: TGI
[2] = tested on: SW-620; assay: panel of 60 human tumor cell lines, growth inhibition (Colon Cancer); details: Homo sapiens; for CC50: SW-620, read-out: LC50; for IC (TGI): SW-620, read-out: TGI
[3] = tested on: NCI-H522; assay: panel of 60 human tumor cell lines, growth inhibition (Non-Small Cell Lung Cancer); details: Homo sapiens; for GI50: NCI-H522; for CC50: NCI-H522, read-out: LC50; for IC (TGI): NCI-H522, read-out: TGI
[4] = tested on: SF-268; assay: panel of 60 human tumor cell lines, growth inhibition (CNS Cancer); details: Homo sapiens; for GI50: SF-268; for CC50: SF-268, read-out: LC50; for IC (TGI): SF-268, read-out: TGI
[5] = tested on: IGROV1; assay: panel of 60 human tumor cell lines, growth inhibition (Ovarian Cancer); details: Homo sapiens; for GI50: IGROV-1; for CC50: IGROV-1, read-out: LC50; for IC (TGI): IGROV-1, read-out: TGI
[6] = tested on: SN12C; assay: panel of 60 human tumor cell lines, growth inhibition (Renal Cancer); details: Homo sapiens; for CC50: read-out: LC50; for IC (TGI): read-out: TGI
[7] = tested on: U251; assay: panel of 60 human tumor cell lines, growth inhibition (CNS Cancer); details: Homo sapiens; for GI50: U-251; for CC50: U-251, read-out: LC50; for IC (TGI): U-251, read-out: TGI
[8] = tested on: SF-295; assay: as above; details: Homo sapiens; for GI50: SF-295; for CC50: SF-295, read-out: LC50; for IC (TGI): SF-295, read-out: TGI
[9] = tested on: HCC-2998; assay: panel of 60 human tumor cell lines, growth inhibition (Colon Cancer); details: Homo sapiens; for GI50: HCC 2998; for CC50: HCC 2998, read-out: LC50; for IC (TGI): HCC 2998, read-out: TGI
[10] = tested on: SNB-19; assay: panel of 60 human tumor cell lines, growth inhibition (CNS Cancer); details: Homo sapiens; for GI50: SNB-19; for CC50: SNB-19, read-out: LC50; for IC (TGI): SNB-19, read-out: TGI
[11] = tested on: OVCAR-5; assay: panel of 60 human tumor cell lines, growth inhibition (Ovarian Cancer); details: for GI50 / CC50 / IC (TGI): Homo sapiens; for CC50: OVCAR-5, read-out: LC50; for IC (TGI): OVCAR-5, read-out: TGI
[12] = tested on: A498; assay: panel of 60 human tumor cell lines, growth inhibition (Renal Cancer); details: Homo sapiens; for GI50: A498; for CC50: A498, read-out: LC50; for IC (TGI): A498, read-out: TGI
[13] = tested on: MDA-MB-231/ATCC; assay: panel of 60 human tumor cell lines, growth inhibition (Breast Cancer); details: Homo sapiens; for GI50: MDA-MB-231; for CC50: MDA-MB-231, read-out: LC50; for IC (TGI): MDA-MB-231, read-out: TGI
[14] = tested on: PC-3; assay: panel of 60 human tumor cell lines, growth inhibition (Prostate Cancer); details: Homo sapiens; for GI50: PC-3; for CC50: PC-3, read-out: LC50; for IC (TGI): PC-3, read-out: TGI
[15] = tested on: HOP-62; assay: panel of 60 human tumor cell lines, growth inhibition (Non-Small Cell Lung Cancer); details: Homo sapiens; for GI50: HOP-62; for CC50: HOP-62, read-out: LC50; for IC (TGI): HOP-62, read-out: TGI
[16] = tested on: LOX IMVI; assay: panel of 60 human tumor cell lines, growth inhibition (Melanoma); details: Homo sapiens; for CC50: read-out: LC50; for IC (TGI): read-out: TGI
[17] = tested on: HOP-92; assay: panel of 60 human tumor cell lines, growth inhibition (Non-Small Cell Lung Cancer); details: Homo sapiens; for CC50: HOP-92, read-out: LC50; for IC (TGI): HOP-92, read-out: TGI
[18] = tested on: CAKI-1; assay: panel of 60 human tumor cell lines, growth inhibition (Renal Cancer); details: Homo sapiens; for GI50: CAKI-1; for CC50: CAKI-1, read-out: LC50; for IC (TGI): CAKI-1, read-out: TGI

Structure (SMILES): C=C1C(=O)O[C@H]2[C@H]1CC/C(COC(=O)NCCN1CCCC1)=C\CC[C@@]1(C)O[C@@H]21 [JVM 59, ((1aR,7aS,10aS,10bS,E)-1a-methyl-8-methylene-9-oxo-1a,2,3,6,7,7a,8,9,10a,10b-decahydrooxireno[2′,3′:9,10]cyclodeca[1,2-b]furan-5-yl)methyl-(2-(pyrrolidin-1-yl)ethyl)carbamate]
- GI50 [1]: 27.6 µM
- CC50 [1]: > 100 µM
- IC (TGI) [1]: 96.5 µM
- GI50 ([2]; SW-620, SW-620, five dose): 3.46 µM
- GI50 ([2]; SW-620, SW-620, 5-dose assay): 3.46 µM
- CC50 [2]: 47.2 µM
- IC (TGI) [2]: 13.8 µM
- GI50 [3]: 1780 nM
- CC50 [3]: 32.2 µM
- IC (TGI) [3]: 5.05 µM
- GI50 [4]: 14.7 µM
- CC50 [4]: 60.8 µM
- IC (TGI) [4]: 30 µM
- GI50 [5]: 4.09 µM
- CC50 [5]: 68.5 µM
- IC (TGI) [5]: 16.2 µM
- GI50 [6]: 17.7 µM
- CC50 [6]: 85.5 µM
- IC (TGI) [6]: 39 µM
- GI50 [7]: 26.7 µM
- CC50 [7]: > 100 µM
- IC (TGI) [7]: 93.1 µM
- GI50 [8]: 48.8 µM
- CC50 [8]: > 100 µM
- IC (TGI) [8]: > 100 µM
- GI50 [9]: 19.2 µM
- CC50 [9]: 67.9 µM
- IC (TGI) [9]: 36.1 µM
- GI50 [10]: 59.1 µM
- CC50 [10]: > 100 µM
- IC (TGI) [10]: > 100 µM
- GI50 ([11]; OVCAR-5): 13.5 µM
- CC50 [11]: 59.3 µM
- IC (TGI) [11]: 28.3 µM
- Percent Growth ([11]; OVCAR-5, Log10 Concentration −7.0): 9B
- GI50 [12]: 20.4 µM
- CC50 [12]: 95.2 µM
- IC (TGI) [12]: 44.1 µM
- GI50 [13]: 15.2 µM
- CC50 [13]: 61.6 µM
- IC (TGI) [13]: 30.6 µM
- GI50 [14]: 15.7 µM
- CC50 [14]: 70.1 µM
- IC (TGI) [14]: 33.2 µM
- GI50 [15]: 18 µM
- CC50 [15]: 62.3 µM
- IC (TGI) [15]: 33.5 µM
- GI50 ([16]; 5-dose assay): 7.88 µM
- GI50 ([16]; five dose): 7.88 µM
- CC50 [16]: 60.6 µM
- IC (TGI) [16]: 23.4 µM
- GI50 ([17]; HOP-92, HOP-92, five dose): 2250 nM
- GI50 ([17]; HOP-92, HOP-92, 5-dose assay): 2250 nM
- CC50 [17]: 32.3 µM
- IC (TGI) [17]: 7.86 µM
- GI50 [18]: 6.86 µM
- CC50 [18]: 51.8 µM
- IC (TGI) [18]: 21.2 µM

Structure (SMILES): C=C1C(=O)O[C@H]2[C@H]1CC/C(COC(=O)NCCN1CCOCC1)=C\CC[C@@]1(C)O[C@@H]21 [JVM 57, ((1aR,7aS,10aS,10bS,E)-1a-methyl-8-methylene-9-oxo-1a,2,3,6,7,7a,8,9,10a,10b-decahydrooxireno[2′,3′:9,10]-cyclodeca[1,2-b]furan-5-yl)-methyl(2-morpholinoethyl)carbamate]
- GI50 [1]: 28.5 µM
- CC50 [1]: > 100 µM
- IC (TGI) [1]: > 100 µM
- GI50 ([2]; SW-620, SW-620): 3.48 µM
- GI50 ([2]; SW-620, SW-620, 5-dose assay): 3.48 µM
- CC50 [2]: 64.8 µM
- IC (TGI) [2]: 13.9 µM
- GI50 [3]: 2130 nM
- CC50 [3]: 31.8 µM
- IC (TGI) [3]: 5.88 µM
- GI50 [4]: 14.5 µM
- CC50 [4]: 64.4 µM
- IC (TGI) [4]: 30.5 µM
- GI50 [5]: 3.49 µM
- CC50 [5]: 58.6 µM
- IC (TGI) [5]: 14.6 µM
- GI50 [6]: 18.8 µM
- CC50 [6]: > 100 µM
- IC (TGI) [6]: 55.2 µM
- GI50 [7]: 42.9 µM
- CC50 [7]: > 100 µM
- IC (TGI) [7]: > 100 µM
- GI50 [8]: > 100 µM
- CC50 [8]: > 100 µM
- IC (TGI) [8]: > 100 µM
- GI50 [9]: 19.7 µM
- CC50 [9]: 72.3 µM
- IC (TGI) [9]: 37.7 µM
- GI50 [10]: 45.3 µM
- CC50 [10]: > 100 µM
- IC (TGI) [10]: > 100 µM
- GI50 ([11]; OVCAR-5): 15.7 µM
- CC50 [11]: 78.5 µM
- IC (TGI) [11]: 35.2 µM
- GI50 [12]: 19.4 µM
- CC50 [12]: > 100 µM
- IC (TGI) [12]: 57 µM
- GI50 [13]: 13.7 µM
- CC50 [13]: 64.3 µM
- IC (TGI) [13]: 29.7 µM
- GI50 [14]: 16.6 µM
- CC50 [14]: 85.8 µM
- IC (TGI) [14]: 37.8 µM
- GI50 [15]: 27.4 µM
- CC50 [15]: > 100 µM
- IC (TGI) [15]: 53 µM
- GI50 [16]: 4.84 µM
- GI50 ([16]; 5-dose assay): 4.84 µM
- CC50 [16]: 47 µM
- IC (TGI) [16]: 17.5 µM
- GI50 ([17]; HOP-92, HOP-92): 2300 nM
- GI50 ([17]; HOP-92, HOP-92, 5-dose assay): 2300 nM
- CC50 [17]: 33.7 µM
- IC (TGI) [17]: 8.61 µM
- GI50 [18]: 4.31 µM
- CC50 [18]: 52.7 µM
- IC (TGI) [18]: 17.7 µM

Structure (SMILES): C=C1C(=O)O[C@H]2[C@H]1CC/C(COC(=S)n1ccnc1)=C\CC[C@@]1(C)O[C@@H]21 [JVM 66]
- CC50 [1]: > 100 µM
- IC (TGI) [1]: 106 µM
- GI50 ([2]; SW-620, SW-620, NCI five dose): 4.86 µM
- CC50 [2]: 78.3 µM
- IC (TGI) [2]: 21.7 µM
- GI50 [3]: 5190 nM
- CC50 [3]: 66.9 µM
- IC (TGI) [3]: 21.3 µM
- GI50 [4]: 21.9 µM
- CC50 [4]: > 100 µM
- IC (TGI) [4]: 67.7 µM
- GI50 [5]: 9.04 µM
- CC50 [5]: > 100 µM
- GI50 [6]: 13.7 µM
- CC50 [6]: 85.3 µM
- IC (TGI) [6]: 18.8 µM
- GI50 [7]: 32.5 µM
- CC50 [7]: > 100 µM
- IC (TGI) [7]: > 100 µM
- GI50 [8]: 45 µM
- CC50 [8]: > 100 µM
- IC (TGI) [8]: 106 µM
- GI50 [9]: 16.8 µM
- CC50 [9]: 63.2 µM
- IC (TGI) [9]: 12.6 µM
- GI50 [10]: 54.3 µM
- CC50 [10]: > 100 µM
- IC (TGI) [10]: > 100 µM
- GI50 ([11]; OVCAR-5): 13.5 µM
- CC50 [11]: 78.1 µM
- IC (TGI) [11]: 1760 µM
- GI50 [12]: 14.5 µM
- CC50 [12]: > 100 µM
- IC (TGI) [12]: 65.5 µM
- GI50 [13]: 15.8 µM
- CC50 [13]: 75.7 µM
- IC (TGI) [13]: 34.6 µM
- GI50 [14]: 12 µM
- CC50 [14]: > 100 µM
- IC (TGI) [14]: 66.6 µM
- GI50 [15]: 36.5 µM
- CC50 [15]: > 100 µM
- GI50 ([16]; NCI five dose): 3.23 µM
- CC50 [16]: 43.1 µM
- IC (TGI) [16]: 11.8 µM
- GI50 ([17]; HOP-92, HOP-92, NCI five dose): 6830 nM
- CC50 [17]: 83.2 µM
- IC (TGI) [17]: 26.9 µM
- GI50 [18]: 12.6 µM
- CC50 [18]: 73.8 µM
- IC (TGI) [18]: 30.5 µM
